{"source": "paper PMC4815073", "about": "“Targeting of tubulin polymerization and induction of mitotic blockage by Methyl 2-(5-fluoro-2-hydroxyphenyl)-1H-benzo[d]imidazole-5-carboxylate (MBIC) in human cervical cancer HeLa cell” (Journal of Experimental & Clinical Cancer Research : CR, 2016)", "key": {"[1]": {"tested_on": "HCT-116 cells", "test": "MTT cytotoxicity assay, HCT-116", "type": "cell-based, human", "settings": "for IC50: Homo sapiens, MTT", "from_the_text": "(§1) The human cervical cancer cell-line, HeLa (CCL-2.2; ATCC, Manassas, VA), HCT-116 (CCL-247; ATCC, Manassas, VA), A549 (CCL-185; ATCC, Manassas, VA), HepG-2 (HB-8065; ATCC, Manassas, VA) and WRL-68 (CL-48; ATCC, Manassas, VA), were obtained from American Type Culture Collection (ATCC). HeLa, A549, HepG2 and WRL68 cells were maintained in Dulbecco’s Modified Eagle Medium (DMEM, Life Technologies, Inc, Rockville, MD). HCT-116 was obtained in McCoy’s 5a Medium Modified (Life Technologies, Inc, Rockville, MD) supplemented with 10 % fetal bovine serum and 1 % penicillin/streptomycin. Cells were incubated at 37 °C in a humidified cell culture 5 % CO2 incubator. Cells were passaged until reaching 70-80-% confluency for experimental purposes.\n(§2) Cytotoxicity of MBIC was estimated by MTT assay. Briefly, 1 × 10^4 cells/well were seeded in a 96-well plate and incubated at 37 °C in 5 % CO2. After 24 h, cells were treated with different concentrations (0.02, 0.04, 0.1, 0.2, 0.4, 0.8, 1.5, 3, 6, 12, 25, 50 μM) of MBIC. 0.01 % DMSO was used as vehicle control. Cells were incubated for 24 and 48 h at 37 °C. Subsequently, 50 μl/well of 3-(4,5-dimethylthiazol-2-yl)-2,5-diphenyltetrazolium bromide (MTT, 2 mg/ml) was added and incubated for 2 h. After the incubation, the media was discarded and 100 μl DMSO was replaced into each well to dissolve the formazan crystal. The colorimetric assay was quantified at 570 nm wavelength using Chameleon V microplate reader (Hidex, Turku, Finland). The anti-proliferation activity of MBIC was expressed as an IC50 value. The percentage of cell viability was calculated as described previously."}, "[2]": {"tested_on": "HeLa cells", "test": "MTT cytotoxicity assay, HeLa", "type": "cell-based, human", "settings": "for IC50: Homo sapiens, HeLa, MTT; for SI (Selectivity Index): IC50 WRL-68 / IC50 HeLa", "from_the_text": "as §1, §2"}, "[3]": {"tested_on": "HeLa cells", "test": "Drug combination assay (MTT, Chou-Talalay, CampuSyn)", "type": "cell-based", "settings": "Homo sapiens, 24 h, drug alone, read-out: (Dm)IC50 Drug 2 (MBIC alone)", "description": "In order to discover the synergistic effects of MBIC with conventional drugs briefly, cells were seeded in 1 × 10^4 cells/well and were incubated at 37 °C overnight. […] Also, the MBIC, combined with each of the selected conventional drugs in a 1:1 ratio, were diluted in concentration from 50 μM to 0.1 μM. Cell viability assay (MTT assay) was performed 24 h post-treatment and absorbance were measured in a microplate reader to find out the IC50 for each conventional drug alone and in combination with MBIC on HeLa cells. For this analysis, we used the commercial software package CampuSyn (Biosoft, Cambridge, United Kingdom; Ref.9). […] Furthermore, the software produced an automated isobologram and fraction affected-combination index (Fa-CI) plot."}, "[4]": {"tested_on": "HeLa cells expressing EGFP-α-tubulin, EGFP-CENP-A and histone H2B-mCherry", "test": "Live-cell imaging of mitotic spindle", "type": "cell-based, human", "settings": "MBIC 10 μM, nocodazole 2 μM; imaged at 15 min intervals", "description": "HeLa cells expressing EGFP-α-tubulin, EGFP-CENP-A and histone H2B-mCherry were grown in glass chambers (Thermo Scientific, USA). Thirty minutes before imaging, the medium was changed to pre-warmed Leibovitz’s L-15 medium (Life Technologies) supplemented with 20 % fetal bovine serum and 20 mM HEPES, pH 7.0. Recordings were made in a temperature-controlled incubator at 37 °C. Images were collected with an Olympus IX-71 inverted microscope (Olympus) controlled by DeltaVision softWoRx (Applied Precision) using a 20x 0.75 NA UPlan SApochromat objective lens (Olympus). Z-series of six sections in 3 μm increments were captured every 15 min. Image stacks were projected."}, "[5]": {"tested_on": "Bcl-2, Bax, cleaved caspase-3/7/9, cleaved PARP", "test": "Western blot, mitochondrial-dependent apoptotic proteins in HeLa cells", "type": "cell-based, human", "settings": "HeLa, 0.21, 0.42 and 1 μM, 24 h", "description": "Western blot analysis was used to investigate protein expression levels. It was adopted by Suresh Kumar et al.. Briefly, 1 × 10^5 cells/flask was seeded and treated with MBIC in a dose-dependent manner for 24 h. Cells treated with colchicine and nocodazole served as positive controls. Cells were collected and lysed in RIPA buffer supplemented with a 10 μl protease inhibitor cocktail, sodium orthovanadate, and PMSF (Santa Cruz, USA). The lysate was stored at −80 °C until further use. A 40 μg of sample protein was resolved on 10 % SDS-PAGE and transferred to a polyvinylidene difluoride (PVDF) membrane (Merck Millipore, USA). The membrane was blocked in 5 % BSA for 1 h at room temperature following an overnight incubation at 4 °C with the following primary antibodies: Anti-Cyclin B1, anti-CDK1, anti-BubR1, anti-Aurora B, anti-cleaved PARP, anti-cleaved caspase-3/7/9, anti-Bcl-2 and anti-Bax (1:1000) (Cell Signaling Technology (CST), USA), mouse anti β-actin (1:40000) (Sigma-Aldrich, USA) antibodies.\nMembranes were washed with 1X TBS-T prior to incubating with HRP-conjugated goat anti-mouse or anti-rabbit secondary antibodies for 2 h at room temperature. Membranes were washed 3 times with 1X TBS-T to remove excess antibodies before the proteins-antibody complex was detected with Amersham ECL prime western blotting detection reagent (GE Healthcare, USA). Western blot images were quantified and processed by ImageJ software (NIH, USA)."}, "[6]": {"tested_on": "WRL-68 cells", "test": "MTT cytotoxicity assay, WRL-68 normal liver cells", "type": "cell-based, human", "settings": "Homo sapiens", "from_the_text": "as §1, §2"}, "[7]": {"test": "Annexin V-FITC/PI apoptosis detection by flow cytometry", "type": "cell-based, human", "settings": "human, HeLa cells, read-out: viable cells (Q3, annexin V- PI-)", "description": "Apoptosis was detected using BD Pharmingen Annexin V-FITC Apoptosis Detection Kit as per manufacturer’s protocol. Briefly, cells were seeded in 25 cm^2 culture flasks (10 × 10^5 cells/flask) and were treated in 3 different MBIC concentrations for 24 and 48 h. Later, treated cells were harvested and washed with 1 ml of 1X Phosphate Buffered-Saline (PBS) before adding 200 μl 1X annexin-binding buffer. 10 μl of annexin V-FITC and 10 μl of PI were added to each 200 μl of cell suspension. Cells were then incubated in total darkness for 15 min at room temperature. 500 μl of 1X annexin-binding buffer was added just before the flow cytometry analysis."}}, "data": [{"smiles": "COC(=O)c1ccc2[nH]c(-c3cc(F)ccc3O)nc2c1", "note": "[MBIC, Methyl 2-(5-fluoro-2-hydroxyphenyl)-1H-benzo[d]imidazole-5-carboxylate]", "values": [{"measurement": "IC50", "setting": "[1]; HCT-116, 24 hours", "value": "2720 ± 400", "unit": "nM"}, {"measurement": "IC50", "setting": "[1]; HCT-116, 48 hours", "value": "2010 ± 300", "unit": "nM"}, {"measurement": "SI (Selectivity Index)", "setting": "[1]; IC50 WRL-68 / IC50 HCT-116, 24 hours", "value": 3.70}, {"measurement": "SI (Selectivity Index)", "setting": "[1]; IC50 WRL-68 / IC50 HCT-116, 48 hours", "value": 3.56}, {"measurement": "IC50", "setting": "[2]; 24 hours", "value": "210 ± 20", "unit": "nM"}, {"measurement": "IC50", "setting": "[2]; 48 hours", "value": "190 ± 30", "unit": "nM"}, {"measurement": "SI (Selectivity Index)", "setting": "[2]; 24 hours", "value": 48.04}, {"measurement": "SI (Selectivity Index)", "setting": "[2]; 48 hours", "value": 37.68}, {"measurement": "selectivity in HeLa cells", "setting": "[2]; versus WRL-68, 24 and 48 h", "value": "> 30", "unit": "fold"}, {"measurement": "IC50", "setting": "[3]", "value": "210 ± 20", "unit": "nM"}, {"measurement": "mitotic spindle formation in live-cell imaging", "setting": "[4]", "value": "did not form the spindle"}, {"measurement": "Bax protein level (Western blot)", "setting": "[5]", "value": "up-regulation"}, {"measurement": "Bcl-2 protein level (Western blot)", "setting": "[5]", "value": "down-regulation"}, {"measurement": "cleaved (activated) caspase-3/7/9 level (Western blot)", "setting": "[5]", "value": "increased"}, {"measurement": "cleaved PARP level (Western blot)", "setting": "[5]", "value": "increased level"}, {"measurement": "IC50", "setting": "[6]; WRL68, 24 hours", "value": "10100 ± 1200", "unit": "nM"}, {"measurement": "IC50", "setting": "[6]; WRL68, 48 hours", "value": "7160 ± 900", "unit": "nM"}, {"measurement": "viability at 24 h, 0.21 µM", "setting": "[7]; 0.21 μM", "value": 48.8, "unit": "%"}, {"measurement": "viability at 24 h, 0.42 µM", "setting": "[7]; 0.42 μM", "value": 36.2, "unit": "%"}, {"measurement": "viability at 24 h, 1 µM", "setting": "[7]; 1 μM", "value": 17.4, "unit": "%"}]}]}
